The source made the active and inactive calls. The rule behind the calls is not given here.
Legend:
[1] = molecular target: 3',5'-cyclic-AMP phosphodiesterase 4B (Homo sapiens, UniProt Q07343); test: Inhibition of recombinant human PDE4B expressed in Sf9 cells measured after 10 mins by luminescence based assay
[2] = molecular target: High affinity 3',5'-cyclic-AMP phosphodiesterase 7A (Homo sapiens, UniProt Q13946); test: Inhibition of recombinant human PDE7A expressed in Sf9 cells measured after 10 mins by luminescence based assay
[3] = molecular target: T1, 5-hydroxytryptamine receptor 1A (Homo sapiens, UniProt P08908); test: Displacement of [3H]8-OH-DPAT from human 5HT1A receptor expressed in HEK293 cells measured after 1 hr by microbeta counting method; type: cell-based
T1 sequence (P08908 whole entry): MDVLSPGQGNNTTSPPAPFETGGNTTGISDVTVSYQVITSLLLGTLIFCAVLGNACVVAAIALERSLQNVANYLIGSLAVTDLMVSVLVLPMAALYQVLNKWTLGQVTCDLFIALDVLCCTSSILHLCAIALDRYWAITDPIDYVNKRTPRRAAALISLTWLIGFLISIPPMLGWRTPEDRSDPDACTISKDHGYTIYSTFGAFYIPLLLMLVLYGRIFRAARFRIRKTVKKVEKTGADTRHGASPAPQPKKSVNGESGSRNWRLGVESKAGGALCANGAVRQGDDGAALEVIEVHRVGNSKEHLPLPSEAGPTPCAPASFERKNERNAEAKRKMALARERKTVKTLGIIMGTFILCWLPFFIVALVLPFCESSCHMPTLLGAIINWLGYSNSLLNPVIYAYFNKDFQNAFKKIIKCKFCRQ

[4] = molecular target: T2, 5-hydroxytryptamine receptor 7 (Homo sapiens, UniProt P34969); test: Displacement of [3H]-5-CT from human 5HT7 receptor expressed in HEK293 cells measured after 1 hr by microbeta counting method; type: cell-based
[5] = molecular target: T2, 5-hydroxytryptamine receptor 7; test: Antagonist activity at recombinant human 5HT7 receptor expressed in CHO-K1 cells co-transfected with beta-lactamase reporter gene assessed as inhibition of serotonin-induced cAMP accumulation measured after 1 hr by LANCE TR-FRET assay; type: functional, cell-based; details: filed as antagonist
[6] = Effective permeability of the compound at 200 uM incubated for 5 hrs by PAMPA based UPLC/MS analysis; type: ADME; details: read-out: Peff
[7] = Metabolic stability of the compound in rat liver microsomes assessed as parent compound remaining at 50 uM preincubated for 5 mins followed by incubation with NADPH regenerating system for 120 mins by LC/MS analysis; type: ADME, Microsome; details: read-out: Stabilty
[8] = molecular target: T2, 5-hydroxytryptamine receptor 7; test: Agonist activity at recombinant human 5HT7 receptor expressed in CHO-K1 cells co-transfected with beta-lactamase reporter gene assessed as cAMP accumulation measured after 1 hr by LANCE TR-FRET assay; type: functional, cell-based
[9] = Toxicity in Wistar rat assessed as rearings at 3 to 10 mg/kg, ip measured after 60 mins by open field test; type: organism-based; details: in vivo, 1 h
[10] = Toxicity in Wistar rat assessed as total ambulations at 3 to 10 mg/kg, ip measured after 60 mins by open field test; type: organism-based; details: in vivo, 1 h
[11] = Toxicity in Wistar rat assessed as rearings at 20 mg/kg, ip measured after 30 mins by open field test; type: organism-based; details: in vivo, 0.5 h
[12] = Toxicity in Wistar rat assessed as total ambulations at 20 mg/kg, ip measured after 30 mins by open field test; type: organism-based; details: in vivo, 0.5 h
[13] = Toxicity in Wistar rat assessed as total distance travelled at 20 mg/kg, ip measured after 30 mins by open field test (reference value: 1897.3 +/-98.6 cm); type: organism-based; details: in vivo, 0.5 h
Rattus norvegicus = test: Antidepressant-like activity in Wistar rat assessed as reduction in immobility time at 20 mg/kg, ip measured after 30 mins by Forced swimming test; type: functional; details: 0.5 h
[14] = molecular target: T1, 5-hydroxytryptamine receptor 1A; test: Binding affinity to 5HT-1A receptor (unknown origin)
[15] = molecular target: T2, 5-hydroxytryptamine receptor 7; test: Binding affinity to 5HT7 receptor (unknown origin)

Chain of High affinity 3',5'-cyclic-AMP phosphodiesterase 7A (Q13946 whole entry): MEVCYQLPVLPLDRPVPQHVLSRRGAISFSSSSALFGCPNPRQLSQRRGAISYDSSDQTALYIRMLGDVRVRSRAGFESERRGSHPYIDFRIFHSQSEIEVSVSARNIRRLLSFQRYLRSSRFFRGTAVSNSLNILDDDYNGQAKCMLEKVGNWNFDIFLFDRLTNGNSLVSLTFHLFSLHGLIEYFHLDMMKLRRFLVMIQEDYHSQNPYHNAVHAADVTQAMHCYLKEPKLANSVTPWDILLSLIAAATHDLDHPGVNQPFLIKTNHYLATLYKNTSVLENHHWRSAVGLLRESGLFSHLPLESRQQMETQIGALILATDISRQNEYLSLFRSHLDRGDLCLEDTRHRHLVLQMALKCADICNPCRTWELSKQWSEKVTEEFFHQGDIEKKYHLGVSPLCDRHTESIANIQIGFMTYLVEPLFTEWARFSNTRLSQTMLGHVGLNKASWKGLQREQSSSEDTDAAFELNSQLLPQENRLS
T2 sequence (P34969 whole entry): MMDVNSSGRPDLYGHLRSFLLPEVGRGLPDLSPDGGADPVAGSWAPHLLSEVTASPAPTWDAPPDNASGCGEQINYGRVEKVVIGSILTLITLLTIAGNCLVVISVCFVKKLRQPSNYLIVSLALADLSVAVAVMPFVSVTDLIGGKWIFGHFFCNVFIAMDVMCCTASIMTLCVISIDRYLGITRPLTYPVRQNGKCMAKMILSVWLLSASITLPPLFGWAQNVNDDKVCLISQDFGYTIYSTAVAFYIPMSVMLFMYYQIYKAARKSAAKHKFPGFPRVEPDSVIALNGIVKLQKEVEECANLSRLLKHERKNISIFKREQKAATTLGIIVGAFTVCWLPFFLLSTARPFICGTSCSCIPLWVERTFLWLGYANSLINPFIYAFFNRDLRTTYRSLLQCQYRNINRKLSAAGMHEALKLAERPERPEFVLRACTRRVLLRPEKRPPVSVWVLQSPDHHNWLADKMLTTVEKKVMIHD
Chain of 3',5'-cyclic-AMP phosphodiesterase 4B (Q07343 whole entry): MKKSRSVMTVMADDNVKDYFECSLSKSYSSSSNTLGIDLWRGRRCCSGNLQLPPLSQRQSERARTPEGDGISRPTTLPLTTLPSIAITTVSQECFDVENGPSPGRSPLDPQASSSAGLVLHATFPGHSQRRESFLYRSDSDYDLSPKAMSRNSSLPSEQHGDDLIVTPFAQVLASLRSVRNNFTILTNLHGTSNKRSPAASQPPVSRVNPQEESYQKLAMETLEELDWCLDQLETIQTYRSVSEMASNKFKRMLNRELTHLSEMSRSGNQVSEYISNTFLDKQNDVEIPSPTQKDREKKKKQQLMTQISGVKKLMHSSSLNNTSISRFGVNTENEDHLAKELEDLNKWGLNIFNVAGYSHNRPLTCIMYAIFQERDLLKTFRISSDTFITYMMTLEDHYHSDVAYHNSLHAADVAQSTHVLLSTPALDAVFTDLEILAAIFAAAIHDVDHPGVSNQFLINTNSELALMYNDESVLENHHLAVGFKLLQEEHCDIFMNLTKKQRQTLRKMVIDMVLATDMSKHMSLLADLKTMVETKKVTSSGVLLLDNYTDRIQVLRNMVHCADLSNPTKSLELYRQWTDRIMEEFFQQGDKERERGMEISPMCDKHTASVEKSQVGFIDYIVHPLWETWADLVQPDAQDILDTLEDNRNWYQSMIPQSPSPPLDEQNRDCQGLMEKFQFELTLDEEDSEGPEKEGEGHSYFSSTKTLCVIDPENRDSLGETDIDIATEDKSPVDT

Compound | Ki [3] | Ki [4] | other results
COc1ccccc1N1CCN(CCCCC(=O)Nc2cccc(C(C)(C)C)c2)CC1.Cl | 16 nM | 75 nM | IC50 [1]: 130 µM; IC50 [2]: > 200 µM; Kb [5]: 54 nM; Papp at 5 h, 200 µM [6]: 4.8 ×10⁻⁶ cm/s; remaining at 2 h, 50 µM [7]: 23.8%; Activity [8]: inactive
COc1ccccc1N1CCN(CCCCCC(=O)Nc2ccc(C(C)(C)C)cc2)CC1 |  | 514 nM | 
COc1ccccc1N1CCN(CCCC(=O)NCc2ccccc2O)CC1 |  | 319 nM | 
COc1ccccc1N1CCN(CCCC(=O)Nc2cccc(C(C)C)c2)CC1 | 187 nM | 157 nM | 
COc1ccccc1N1CCN(CCCCC(=O)Nc2ccc(C(C)C)cc2)CC1.Cl |  |  | IC50 [1]: 80.4 µM; IC50 [2]: 151 µM; Papp at 5 h, 200 µM [6]: 10.5 ×10⁻⁶ cm/s; Activity [9]: Non-Toxic; Activity [10]: Non-Toxic; remaining at 2 h, 50 µM [7]: 90.1%
COc1ccccc1N1CCN(CCCCCC(=O)Nc2cc(C(C)(C)C)ccc2O)CC1 |  | 154 nM | 
COc1ccccc1N1CCN(CCCCC(=O)Nc2ccccc2O)CC1 | 31 nM | 300 nM | 
COc1ccccc1N1CCN(CCCC(=O)Nc2ccc(C(C)(C)C)cc2)CC1 |  | 1200 nM | IC50 [1]: 96 µM; IC50 [2]: 27 µM
COc1ccccc1N1CCN(CCCCCC(=O)Nc2cccc(C(C)(C)C)c2)CC1 | 53 nM | 190 nM | 
COc1ccccc1N1CCN(CCCCCC(=O)Nc2ccccc2O)CC1 | 95 nM | 254 nM | 
COc1ccccc1N1CCN(CCCCCC(=O)Nc2ccc(C(=O)OC(C)(C)C)cc2)CC1 | 125 nM | 799 nM | 
COc1ccccc1N1CCN(CCCCC(=O)Nc2ccccc2C(N)=O)CC1 | 82 nM | 1870 nM | 
COc1ccccc1N1CCN(CCCCCC(=O)Nc2ccc(C(C)C)cc2)CC1 | 43 nM | 434 nM | 
COc1ccccc1N1CCN(CCCCC(=O)Nc2ccc(C(C)(C)C)cc2)CC1 | 21 nM | 496 nM | IC50 [1]: 138 µM; IC50 [2]: > 200 µM
COc1ccccc1N1CCN(CCCCC(=O)NCc2ccccc2O)CC1 |  | 343 nM | 
CCn1cc(C(=O)O)c(=O)c2cc(F)c(N3CCNCC3)cc21 [NORFLOXACIN] |  |  | Papp at 5 h, 200 µM [6]: 0.6 ×10⁻⁶ cm/s
COc1ccccc1N1CCN(CCCCC(=O)Nc2cccc(C(=O)OC(C)(C)C)c2)CC1 |  | 927 nM | 
CN(C)CCC[C@@]1(c2ccc(F)cc2)OCc2cc(C#N)ccc21 [ESCITALOPRAM] |  |  | Activity [11]: Non-Toxic; Activity [12]: Non-Toxic; Activity [13]: 2058.5 cm; inhibition in vivo at 20 mg/kg (Rattus norvegicus): 49%

Compound | Ki [3] | Ki [4] | other results
COc1ccccc1CNC(=O)CCCCCN1CCN(c2ccccc2OC)CC1 | 64 nM | 515 nM | 
COc1ccccc1N1CCN(CCCCC(=O)NCc2ccc(C(C)(C)C)cc2)CC1 | 138 nM | 391 nM | 
O=S(=O)(NCCCCN1CCN(c2nsc3ccccc23)CC1)c1c[nH]c2ncccc12 |  |  | Ki [14]: 78 nM; Ki [15]: 93 nM
COc1ccccc1N1CCN(CCCC(=O)Nc2cc(C(C)(C)C)ccc2O)CC1 |  | 328 nM | IC50 [1]: 69 µM; IC50 [2]: 57 µM
COc1ccccc1N1CCN(CCCC(=O)Nc2ccc(C(C)C)cc2)CC1 | 150 nM | 954 nM | 
CCC(C)c1ccc(NC(=O)CCCCN2CCN(c3ccccc3OC)CC2)cc1 (centres undefined) | 14 nM | 323 nM | IC50 [1]: 169 µM; IC50 [2]: 126 µM
COc1ccccc1N1CCN(CCCC(=O)Nc2ccccc2C(N)=O)CC1 | 526 nM | 1140 nM | 
COc1ccccc1N1CCN(CCCCCC(=O)NCc2ccccc2O)CC1 | 70 nM | 289 nM | 
COc1ccccc1N1CCN(CCCC(=O)Nc2cccc(C(C)(C)C)c2)CC1 | 224 nM | 130 nM | 
COc1ccccc1CNC(=O)CCCN1CCN(c2ccccc2OC)CC1 | 292 nM | 869 nM | 
CCC(C)c1ccc(NC(=O)CCCN2CCN(c3ccccc3OC)CC2)cc1 (centres undefined) | 37 nM | 354 nM | 
COc1ccccc1N1CCN(CCCCC(=O)Nc2cccc(C(C)C)c2)CC1.Cl |  | 151 nM | IC50 [1]: 88.1 µM; IC50 [2]: > 200 µM; Papp at 5 h, 200 µM [6]: 8.6 ×10⁻⁶ cm/s; remaining at 2 h, 50 µM [7]: 6.5%
COc1ccccc1N1CCN(CCCCC(=O)Nc2cc(C(C)(C)C)ccc2O)CC1 | 61 nM | 159 nM | IC50 [1]: 36.5 µM; IC50 [2]: > 200 µM
COc1ccccc1CNC(=O)CCCCN1CCN(c2ccccc2OC)CC1 | 82 nM | 366 nM | 
COc1ccccc1N1CCN(CCCC(=O)Nc2ccccc2O)CC1 | 405 nM | 471 nM | 
COc1ccccc1N1CCN(CCCCCC(=O)Nc2cccc(C(C)C)c2)CC1 | 34 nM | 141 nM | 
CCC(C)c1ccc(NC(=O)CCCCCN2CCN(c3ccccc3OC)CC2)cc1 (centres undefined) | 69 nM | 260 nM | 
COc1ccccc1N1CCN(CCCC(=O)Nc2ccc(C(=O)OC(C)(C)C)cc2)CC1 | 287 nM | 3280 nM | 
